# Patent US8003627B2, “Urokinase inhibitors” (Universiteit Antwerpen, priority 2005, dated 2011)
# Read-outs that look alike come from different tables or passages of the source.
# Columns and labels:
# thrombin = thrombin (Homo sapiens, UniProt P00734); assay: Selectivity: thrombin inhibition, chromogenic substrate S-2366; assay type: biochemical
# Method: (§1) The IC50 values for plasmin, tPA, thrombin and FXa were determined in the same way as for uPA. […] FX is activated with Russel's Viper Venom.
# (§2) Approximately 5 mU of enzyme, and 145 μl of buffer. For tPA and thrombin Tris buffer, pH 8.3, for FXa, Tris buffer pH 8.3 with 2.5 mM CaCl2, for plasmin Tris buffer pH 7.4, and for trypsin Tris buffer pH 8.2 was used. The selectivity index was calculated as (IC50 Enzyme X)/IC50 uPA, where X is tPA, thrombin, plasmin or FXa.
# FXa = FXa (Homo sapiens, UniProt P00742); assay: Selectivity: FXa inhibition, chromogenic substrate S-2772; assay type: biochemical; details: for inhibition at 250 µM: read-out: % inhibition at given concentration, FXa
# Method: as §1, §2
# plasmin = biological target: T1, plasmin (Homo sapiens, UniProt P00747); assay: Selectivity: plasmin inhibition, chromogenic substrate S-2366; assay type: biochemical
# T1 construct: uPA mediates the proteolytic cleavage of plasminogen to give plasmin
# Method: as §1, §2
# tPA = tPA (Homo sapiens, UniProt P00750); assay: Selectivity: tPA inhibition, chromogenic substrate S-2288; assay type: biochemical; details: 1.25 mM substrate, Tris pH 8.3
# Method: as §1, §2
# uPA [1] = biological target: T2, uPA (Homo sapiens, UniProt P00749); assay: biochemical; assay type: biochemical; set-up: purchased Sigma-Aldrich
# Method: The substrate was obtained from Chromogenix. The human enzyme was obtained from Sigma-Aldrich, the mouse uPA was obtained from Molecular Innovations.Inc (USA). […] A 50 mM Tris buffer, pH 8.8, was used. […] Activity measurements were routinely performed in duplicate. […] IC50 values were obtained by fitting the data with the 4 parameter logistics equation using Grafit 5. v=(vrange)/(1+exp(s*ln(abs(I0/IC50))))+back s: slope factor back: background v: rate I0: inhibitor concentration range: the fitted uninhibited value minus the background.
# The equation assumes that y falls with increasing x.
# (§3) Inhibitor stock solutions were prepared in DMSO and stored at −20° C. […] For a simple pseudo-first-order inactivation process, the activity after incubation with inhibitor (vi) varies with the inhibitor concentration (i) as described in the following equation: vi=v0·e^−kit, where v0 is the activity in absence of inhibitor, k is the second-order rate constant of inactivation, and t is the time.
# trypsin = biological target: T3, trypsin (Bos taurus, UniProt P00760); assay: Selectivity: trypsin inhibition, chromogenic substrate BAPNA; assay type: biochemical; details: 425 μM substrate, Tris pH 8.2
# T3 sequence (P00760 24-246): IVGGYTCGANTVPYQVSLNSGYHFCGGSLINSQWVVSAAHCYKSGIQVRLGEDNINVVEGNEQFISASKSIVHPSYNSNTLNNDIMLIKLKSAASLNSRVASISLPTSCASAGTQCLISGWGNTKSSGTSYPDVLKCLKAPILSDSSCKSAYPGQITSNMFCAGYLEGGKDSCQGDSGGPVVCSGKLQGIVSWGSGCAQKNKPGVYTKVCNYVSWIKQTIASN
# Method: as §1, §2
# uPA [2] = biological target: T2, uPA; assay type: biochemical; set-up: purchased Sigma-Aldrich; details: apparent second order rate constant, 250 μM substrate
# Method: as §3
# uPA [3] = biological target: T2, uPA; details: Tamura et al. 2000; cited from earlier work
# [4] = 580 μM substrate, Tris pH 8.3, read-out: IC50 (μM) Thrombin
# [5] = 522 μM substrate, Tris pH 8.3 with […] CaCl2, read-out: IC50 (μM) FXa
# [6] = 580 μM substrate, Tris pH 7.4, read-out: IC50 (μM) Plasmin
# [7] = 15-min pre-incubation at 37° C, 250 μM S-2444, Tris pH 8.8, read-out: IC50 (nM) uPA
# Sequence of FXa (P00742 235-488 limits assumed): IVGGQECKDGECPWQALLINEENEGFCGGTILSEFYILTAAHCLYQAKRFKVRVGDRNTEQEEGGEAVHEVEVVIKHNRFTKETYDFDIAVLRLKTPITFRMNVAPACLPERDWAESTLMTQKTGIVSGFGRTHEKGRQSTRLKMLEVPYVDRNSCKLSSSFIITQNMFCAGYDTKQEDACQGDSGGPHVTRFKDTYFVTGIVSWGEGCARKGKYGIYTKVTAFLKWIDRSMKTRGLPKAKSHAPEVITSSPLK
# Sequence of FXa (P00742 41-179 partner limits assumed): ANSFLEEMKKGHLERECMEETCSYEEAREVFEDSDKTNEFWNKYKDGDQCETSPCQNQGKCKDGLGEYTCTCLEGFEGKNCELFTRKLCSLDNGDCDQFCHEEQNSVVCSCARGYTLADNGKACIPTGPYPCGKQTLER
# Sequence of tPA (P00750 36-562, species assumed): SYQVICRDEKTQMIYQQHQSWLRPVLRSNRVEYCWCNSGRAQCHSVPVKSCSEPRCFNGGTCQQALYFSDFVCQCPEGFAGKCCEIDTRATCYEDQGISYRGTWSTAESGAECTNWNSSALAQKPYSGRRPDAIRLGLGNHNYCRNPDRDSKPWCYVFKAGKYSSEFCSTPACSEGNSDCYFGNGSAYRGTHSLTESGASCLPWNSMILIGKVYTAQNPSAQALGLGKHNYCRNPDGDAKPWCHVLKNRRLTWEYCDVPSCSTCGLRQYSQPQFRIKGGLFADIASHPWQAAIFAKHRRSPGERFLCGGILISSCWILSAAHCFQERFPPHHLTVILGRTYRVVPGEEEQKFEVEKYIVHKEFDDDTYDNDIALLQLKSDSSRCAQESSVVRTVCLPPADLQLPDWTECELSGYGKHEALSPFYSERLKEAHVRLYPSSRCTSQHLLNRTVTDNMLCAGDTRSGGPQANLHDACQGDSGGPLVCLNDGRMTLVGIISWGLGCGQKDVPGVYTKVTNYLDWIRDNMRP
# T1 sequence (P00747 581-810 limits assumed, species assumed): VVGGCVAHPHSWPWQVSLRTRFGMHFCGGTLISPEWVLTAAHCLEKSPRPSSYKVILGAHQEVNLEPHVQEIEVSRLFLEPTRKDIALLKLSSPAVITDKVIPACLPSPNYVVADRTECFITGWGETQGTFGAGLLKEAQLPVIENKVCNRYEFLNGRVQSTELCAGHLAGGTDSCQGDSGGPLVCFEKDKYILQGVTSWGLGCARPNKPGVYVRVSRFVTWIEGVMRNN
# T1 sequence (P00747 97-580 partner limits assumed, species assumed): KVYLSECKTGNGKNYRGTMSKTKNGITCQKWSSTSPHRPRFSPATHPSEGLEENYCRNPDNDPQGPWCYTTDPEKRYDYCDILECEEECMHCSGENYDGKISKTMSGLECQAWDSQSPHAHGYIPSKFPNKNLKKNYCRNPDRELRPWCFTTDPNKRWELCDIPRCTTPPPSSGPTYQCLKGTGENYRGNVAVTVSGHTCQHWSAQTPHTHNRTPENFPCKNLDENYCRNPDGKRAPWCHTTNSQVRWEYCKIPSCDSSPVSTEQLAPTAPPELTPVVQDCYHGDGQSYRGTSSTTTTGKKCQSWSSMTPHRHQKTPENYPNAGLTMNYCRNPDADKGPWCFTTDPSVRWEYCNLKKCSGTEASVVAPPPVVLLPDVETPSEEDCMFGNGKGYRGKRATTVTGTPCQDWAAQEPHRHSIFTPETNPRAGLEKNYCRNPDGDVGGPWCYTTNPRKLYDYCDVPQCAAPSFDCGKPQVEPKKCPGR
Molecule,IC50 (thrombin; [4]),IC50 (FXa; [5]),IC50 (plasmin; [6]),IC50 (tPA),further results
"N=C(N)Nc1ccc(CC(NC(=O)OCc2ccccc2)P(=O)(Oc2ccccc2)Oc2ccccc2)cc1 (centres unmarked) [Compound 7b, Diphenyl 1-(benzyloxycarbonylamino)-2-(4-guanidinophenyl)-ethanephosphonate]",2.4 ± 0.4 µM,100 ± 20 µM,3 ± 0.6 µM,12 ± 0.8 µM,–
"N=C(N)Nc1ccc(CC(NC(=O)c2ccccc2)P(=O)(Oc2ccccc2)Oc2ccccc2)cc1 (centres unmarked) [Compound 7c, Diphenyl 1-(benzoylamino)-2-(4-guanidinophenyl)-ethanephosphonate]",–,–,14 ± 1 µM,125 µM,"IC50 (uPA [1]; pH 8.8, read-out: IC50 (nM) uPA): 114 ± 11 nM; IC50 (FXa): > 250 µM"
"Cc1ccccc1S(=O)(=O)NC(Cc1ccc(NC(=N)N)cc1)P(=O)(Oc1ccccc1)Oc1ccccc1 (centres unmarked) [Compound 7d, Diphenyl 1-(o-toluenesulfonylamino)-2-(4-guanidinophenyl)-ethanephosphonate]",11.9 ± 1.7 µM,–,17 ± 2 µM,7.3 ± 0.5 µM,"IC50 (trypsin): 0.17 ± 0.01 µM; % inhibition at given concentration, FXa (FXa; at 62 μM): 59% @"
"CC(C)c1ccc(C(C)C)c(S(=O)(=O)NC(Cc2ccc(NC(=N)N)cc2)P(=O)(Oc2ccccc2)Oc2ccccc2)c1C(C)C (centres unmarked) [Compound 7f, Diphenyl 1-(2,3,6-tri-isopropylbenzenesulfonyl)amino-2-(4-guanidinophenyl)-ethanephosphonate]",–,20 ± 2 µM,~125 µM,16 ± 1 µM,"IC50 (trypsin): 5.6 ± 0.04 µM; % inhibition at given concentration, Thrombin (thrombin; at 250 μM): 60% @"
"CS(=O)(=O)NC(Cc1ccc(NC(=N)N)cc1)P(=O)(Oc1ccccc1)Oc1ccccc1 (centres unmarked) [Compound 7g, Diphenyl 1-(methylsulfonylamino)-2-(4-guanidinophenyl)-ethanephosphonate]",–,–,11 ± 1 µM,8 ± 2 µM,IC50 (thrombin): ~125 µM; IC50 (FXa): ~250 µM
"N=C(N)c1ccc(C(NC(=O)OCc2ccccc2)P(=O)(Oc2ccccc2)Oc2ccccc2)cc1 (centres unmarked) [Compound 8a, Diphenyl 1-(N-benzyloxycarbonylamino)-1-(4-amidinophenyl)methanephosphonate]",0.288 ± 0.006 µM,6 ± 0.2 µM,3.6 ± 0.4 µM,66 ± 7 µM,–
"N=C(N)c1ccc(CC(NC(=O)OCc2ccccc2)P(=O)(Oc2ccccc2)Oc2ccccc2)cc1 (centres unmarked) [Compound 8b, Diphenyl 1-(N-benzyloxycarbonylamino)-2-(4-amidinophenyl)ethanephosphonate]",20 ± 2 µM,–,1.2 ± 0.1 µM,4 ± 2 µM,inhibition at 250 µM (FXa): 65%
"CCC(NC(=O)OCc1ccccc1)(c1ccc(C(=N)N)cc1)P(=O)(Oc1ccccc1)Oc1ccccc1 (centres unmarked) [Compound 8c, Diphenyl 1-(N-benzyloxycarbonylamino)-1-(4-amidinophenyl)propanephosphonate]",17 ± 2 µM,13.7 ± 1.3 µM,6.2 ± 0.4 µM,68 ± 9 µM,IC50 (trypsin): 3.5 ± 0.2 µM
"CC(=O)Nc1ccc(OP(=O)(Oc2ccc(NC(C)=O)cc2)C(Cc2ccc(NC(=N)N)cc2)NC(=O)OCc2ccccc2)cc1 (centres unmarked) [Compound 9b, Di-(4-acetamidophenyl) 1-(benzyloxycarbonylamino)-2-[(4-guanidino)phenyl]ethanephosphonate]",0.39 ± 0.03 µM,100 ± 24 µM,0.9 ± 0.2 µM,7 ± 1 µM,IC50 (uPA [1]; [7]): 4.2 ± 0.9 nM
"CC(=O)Nc1ccc(OP(=O)(Oc2ccc(NC(C)=O)cc2)C(Cc2ccc(NC(=N)N)cc2)NS(C)(=O)=O)cc1 (centres unmarked) [Compound 9c, Di-(4-acetamidophenyl) 1-(methylsulfonylamino)-2-(4-guanidinophenyl)-ethanephosphonate]",2.35 ± 0.06 µM,–,2 ± 0.4 µM,3.7 ± 0.4 µM,IC50 (uPA [1]; [7]): 3.5 ± 0.5 nM; inhibition at 250 µM (FXa): 55%
"N=C(N)Nc1ccc(CC(N)P(=O)(Oc2ccccc2)Oc2ccccc2)cc1 (centres unmarked) [Compound 34d, Diphenyl 1-amino-2-(4-guanidinophenyl)ethylphosphonate]",–,–,–,–,IC50 (uPA [1]; [7]): 1600 ± 130 nM
"COC(=O)NC(Cc1ccc(NC(=N)N)cc1)P(=O)(Oc1ccccc1)Oc1ccccc1 (centres unmarked) [Compound 35a, Methyl 1-(diphenoxyphosphoryl)-2-(4-guanidinophenyl)ethylcarbamate]",–,–,–,23 ± 6 µM,IC50 (thrombin): 16.6 ± 2.3 µM; kapp (M^−1 · s^−1) uPA (uPA [2]): 62000 M⁻¹ s⁻¹; IC50 (uPA [1]; [7]): 3.1 ± 0.5 nM; IC50 (plasmin): 12.8 ± 2 µM
"CCOC(=O)NC(Cc1ccc(NC(=N)N)cc1)P(=O)(Oc1ccccc1)Oc1ccccc1 (centres unmarked) [Compound 35c, Ethyl 1-(diphenoxyphosphoryl)-2-(4-guanidinophenyl)ethylcarbamate]",3.8 ± 0.2 µM,–,16 ± 3 µM,57 ± 14 µM,kapp (M^−1 · s^−1) uPA (uPA [2]): 40000 M⁻¹ s⁻¹; IC50 (uPA [1]; [7]): 8 ± 3 nM
"CNC(=O)NC(Cc1ccc(NC(=N)N)cc1)P(=O)(Oc1ccccc1)Oc1ccccc1 (centres unmarked) [Compound 39a, Diphenyl 2-(4-guanidinophenyl)-1-(3-methylureido)ethylphosphonate]",–,–,–,–,IC50 (uPA [1]): 101000 ± 6800 nM
"N=C(N)Nc1ccc(CC(NC(=O)NCc2ccccc2)P(=O)(Oc2ccccc2)Oc2ccccc2)cc1 (centres unmarked) [Compound 39b, Diphenyl 1-(3-benzylureido)-2-(4-guanidinophenyl)ethylphosphonate]",–,–,–,–,IC50 (uPA [1]): 43900 ± 3900 nM
"CC(=O)NC(Cc1ccc(NC(=N)N)cc1)P(=O)(Oc1ccccc1)Oc1ccccc1 (centres unmarked) [Compound 41, Diphenyl 1-acetamido-2-(4-guanidinophenyl)ethylphosphonate]",32.2 ± 1.4 µM,–,57 ± 1.3 µM,–,IC50 (uPA [1]): 9.9 ± 0.8 nM
Diphenyl 1-(naphthalenesulfonylamino)-2-(4-guanidinophenyl)-ethanephosphonate [Compound 7e],8.1 ± 0.8 µM,27 ± 2 µM,1.2 ± 0.1 µM,44 ± 10 µM,IC50 (trypsin): 0.28 ± 0.05 µM
Z-D-Ser-Ala-Arginal,–,–,–,–,IC50 (uPA [3]): 0.019 µM; selectivity ratio toward tPA (uPA [3]): more than 130
